These are literature values, as cited in PMC6966871 (Journal of Hematology & Oncology, 2020).

On the set-up of data set [1]: method as in PMID 30718102. The note with it: cited from earlier work.
For data set [2], the system named is METex14-altered NSCLC. Set-up: method as in doi:10.1200/JCO.2016.34.15_suppl.108. As to conditions: METex14-altered NSCLC patients; cited from earlier work.
Data set [3] concerns EGFR-mutant NSCLC. Set-up: method as in PMID 30156984. As to conditions: in combination with gefitinib, EGFR-mutant NSCLC progressed on previous gefitinib; cited from earlier work.
Details of data set [4]: method as in PMID 30724423. The note with it: cited from earlier work.

Like-named read-outs stand apart in the source and are kept apart here.

Take `COc1cc2nccc(Oc3ccc(NC(=O)C4(C(=O)Nc5ccc(F)cc5)CC4)cc3)c2cc1OC` [cabozantinib]: the “rate of discontinuation due to an AE” value in data set [1] (Japanese NSCLC patients, phase 1) is reported as 10%. In addition, in data set [1], the “AE: diarrhea” value was 78%, the “AE: hypertension” value is 87%, the “AE: increased ALT” value is on record as 95% and the “AE: increased AST” value is 95%. Besides, in data set [1], the “AE: palmar-plantar erythrodysesthesia” value is listed as 100% and the “patients who experienced ≥ grade 3 AEs” value is given as 70%. Also, the “patients with dose reduction” value in data set [1] (dose-escalation cohorts, about) was 30–40%. The patients with discontinuation in data set [1] (dose-escalation cohorts) is on record as 13%.
`C[C@@H](Oc1cc(-c2cnn(C3CCNCC3)c2)cnc1N)c1c(Cl)ccc(F)c1Cl` [Crizotinib]: the unconfirmed response rate result in data set [2] is “up to 44%”.
Regarding `CNC(=O)c1ccc(-c2cnc3ncc(Cc4ccc5ncccc5c4)n3n2)cc1F` [capmatinib], the “overall ORR” value in data set [3] is given as 27%. For the same compound, in data set [4] (21 patients), the “patients with one or more dose interruptions” value is recorded as 47.7%. Further, in data set [4], the “AE: decreased appetite” value is 41%, the “AE: diarrhea” value is reported as 25%, the “AE: increased blood creatinine” value is on record as 52% and the “AE: nausea” value is recorded as 48. Besides, in data set [4], the “AE: vomiting” value is 39%, the “AEs leading to discontinuation” value was 9% and the “adverse events leading to dose adjustment and/or interruption” value is 59%. The “patients with dose interruption only once” value in data set [4] (nine patients) was 20.5%.
